Assay results published in patent publication US10301272B2, “Carboxamide or sulfonamide substituted thiazoles and related derivatives as modulators for the orphan nuclear receptor ROR[γ]” (Phenex Pharmaceuticals AG, priority 2012, dated 2019).
Like-named read-outs stand apart in the source and are kept apart here.

Key:
[1] = target: RORγ ligand binding domain (LBD) (Homo sapiens (Human), UniProt P51449); experiment: TR-FRET Activity Assay (ligand sensing assay, LANCE); details: for pIC50 (FRET): TR-FRET, interaction of RORγ-LBD with coactivator peptide
RORγ = RORγ (Homo sapiens, UniProt P51449); experiment: RORγ Gal4 Reporter Gene Assay; type: cell-based; details: for IC50: 293T cells
Summary of the method: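 Cells at 5×10^5/well were transfected with RORγ fragments fused to the GAL4 DNA-binding domain (CMV promoter), a 5×GAL4-site firefly luciferase reporter and CMV-Renilla luciferase for normalization. About 4 h later serum-free MEM and compound were added (vehicle ≤0.1%). Cultures at 37 °C, 5% CO2; at least triplicates.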

RORγ ligand binding domain (LBD), sequence (P51449 269-508): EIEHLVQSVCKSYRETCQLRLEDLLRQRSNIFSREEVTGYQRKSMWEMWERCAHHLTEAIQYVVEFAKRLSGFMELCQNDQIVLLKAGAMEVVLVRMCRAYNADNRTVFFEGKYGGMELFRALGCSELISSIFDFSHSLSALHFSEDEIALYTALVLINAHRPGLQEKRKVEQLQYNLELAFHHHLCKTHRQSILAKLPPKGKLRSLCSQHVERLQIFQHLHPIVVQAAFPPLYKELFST
RORγ, sequence (P51449 whole entry, looked up, the tested form may be a part): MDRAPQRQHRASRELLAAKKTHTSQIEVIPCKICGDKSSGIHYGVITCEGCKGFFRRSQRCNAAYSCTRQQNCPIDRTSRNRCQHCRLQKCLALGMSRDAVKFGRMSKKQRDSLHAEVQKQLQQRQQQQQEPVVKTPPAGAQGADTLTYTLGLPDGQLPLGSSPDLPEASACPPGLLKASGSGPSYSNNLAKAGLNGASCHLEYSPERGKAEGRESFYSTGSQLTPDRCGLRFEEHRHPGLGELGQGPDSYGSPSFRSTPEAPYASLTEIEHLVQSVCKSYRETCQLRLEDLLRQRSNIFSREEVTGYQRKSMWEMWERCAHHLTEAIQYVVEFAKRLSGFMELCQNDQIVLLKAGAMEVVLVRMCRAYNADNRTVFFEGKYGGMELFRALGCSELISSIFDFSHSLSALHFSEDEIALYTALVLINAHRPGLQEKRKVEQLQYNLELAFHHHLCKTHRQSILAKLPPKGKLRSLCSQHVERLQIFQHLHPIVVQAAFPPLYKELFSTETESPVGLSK

Structure (SMILES)	pIC50 (FRET) [1]	pIC50 (FF) (RORγ)	pIC50 (REN) (RORγ)	IC50 [1] [nM]	IC50 (RORγ; firefly (FF) luciferase, read-out: pIC50 (FF) (converted)) [nM]	IC50 (RORγ; renilla normalised (RENnorm) luciferase, read-out: pIC50 (REN) (converted)) [nM]
CC(C)(C)c1cc(-c2sc(C(=O)NCC3(C(N)=O)CCOCC3)nc2CC2CCCCC2)cc(C2(C)CC2)c1 [6/2]	7.0/7.5/7.7	7.0/7.5/7.7	7.0/7.5/7.7	–	–	–
CC(C)(C)NS(=O)(=O)c1ccc(-c2sc(C(=O)NCC3(C(N)=O)CCOCC3)nc2CC2CCCCC2)c2ccccc12 [6/3]	6.5/8.5/8.7	6.5/8.5/8.7	6.5/8.5/8.7	–	–	–
CC(C)(C)NS(=O)(=O)c1ccc(-c2sc(C(=O)NCC3(O)CCS(=O)(=O)CC3)nc2CC2CCCCC2)c2ccccc12 [6/5]	6.6/8.5/8.7	6.6/8.5/8.7	6.6/8.5/8.7	–	–	–
CC(C)(C)NS(=O)(=O)c1ccc(-c2sc(C(=O)NC3CCS(=O)(=O)CC3)nc2CC2CCCCC2)c2ccccc12 [6/6]	6.7/9.0/9.0	6.7/9.0/9.0	6.7/9.0/9.0	–	–	–
CC(C)(C)NS(=O)(=O)c1ccc(-c2sc(C(=O)NC34CCC(C(=O)O)(CC3)CC4)nc2CC2CCCCC2)c2ccccc12 [6/8]	6.3/8.2/8.2	6.3/8.2/8.2	6.3/8.2/8.2	–	–	–
C[C@H](NS(=O)(=O)c1ccc(-c2sc(C(=O)NC3CCOCC3)nc2CC2CCCCC2)c2ccccc12)C(F)(F)F [6/12]	–	–	–	126	2	2
CC(C)(C)NS(=O)(=O)c1ccc(-c2sc(C(=O)NC3CSC3)nc2CC2CCCCC2)c2ccccc12 [6/14]	6.8/8.7/8.7	6.8/8.7/8.7	6.8/8.7/8.7	–	–	–
CC(C)(O)CNC(=O)c1nc(CC2CCCCC2)c(-c2ccc(S(=O)(=O)NC(C)(C)C)c(C(F)F)c2F)s1 [6/18]	7.0/8.5/8.7	7.0/8.5/8.7	7.0/8.5/8.7	–	–	–
CC(C)(C)NS(=O)(=O)c1ccc(-c2sc(C(=O)NN3CCOCC3)nc2CC2CCCCC2)c(Cl)c1Cl [6/20]	6.9	6.9/8.7/8.7	6.9/8.7/8.7	–	–	–
CC(C)(C)NS(=O)(=O)c1ccc(-c2sc(C(=O)NN3CCS(=O)(=O)CC3)nc2CC2CCCCC2)c(Cl)c1Cl [6/21]	6.8/8.7/8.7	6.8/8.7/8.7	6.8/8.7/8.7	–	–	–
CC(C)(C)NS(=O)(=O)c1ccc(-c2sc(C(=O)NC3CCOCC3)nc2CC2CCCCC2)cc1C(C)(C)O [6/22]	6.8/7.7/7.7	6.8/7.7/7.7	6.8/7.7/7.7	–	–	–
CC(C)(O)CNC(=O)c1nc(CC2CCCCC2)c(-c2ccc(S(=O)(=O)NC(C)(C)C)c(C(C)(C)O)c2)s1 [6/23]	6.6/7.5/7.6	6.6/7.5/7.6	6.6/7.5/7.6	–	–	–
CC(C)(C)NS(=O)(=O)c1ccc(-c2sc(C(=O)NC3CSC3)nc2CC2CCCCC2)cc1C(C)(C)O [6/24]	7.3/7.9/8.0	7.3/7.9/8.0	7.3/7.9/8.0	–	–	–
CC(C)(C)NS(=O)(=O)c1ccc(-c2sc(C(=O)NCCN3CCOCC3)nc2CC2CCCCC2)cc1C(C)(C)O [6/25]	5.8/6.7/6.7	5.8/6.7/6.7	5.8/6.7/6.7	–	–	–
CC(C)(C)NS(=O)(=O)c1ccc(-c2sc(C(=O)NC3CCS(=O)(=O)CC3)nc2CC2CCCCC2)cc1C(C)(C)O [6/26]	6.6/7.7/7.8	6.6/7.7/7.8	6.6/7.7/7.8	–	–	–
CC(C)(C)NS(=O)(=O)c1ccc(-c2sc(C(=O)NCC3(O)CCOCC3)nc2CC2CCCCC2)cc1C(C)(C)O [6/27]	6.7/7.7/7.7	6.7/7.7/7.7	6.7/7.7/7.7	–	–	–
CC(C)(C)NS(=O)(=O)c1ccc(-c2sc(C(=O)NC3CSC3)nc2CC2CCCCC2)c(Cl)c1Cl [6/30]	7.2/8.7/8.7	7.2/8.7/8.7	7.2/8.7/8.7	–	–	–
CC(C)(C)NS(=O)(=O)c1ccc(-c2sc(C(=O)NC3CC3)nc2CC2CCCCC2)c(Cl)c1Cl [6/31]	7.3/8.0/8.0	7.3/8.0/8.0	7.3/8.0/8.0	–	–	–
CC(C)(C)NS(=O)(=O)c1ccc(-c2sc(C(=O)N3CC4(CSC4)C3)nc2CC2CCCCC2)c(Cl)c1Cl [6/32]	6.9/8.0/8.2	6.9/8.0/8.2	6.9/8.0/8.2	–	–	–
CC(C)(C)NS(=O)(=O)c1ccc(-c2sc(C(=O)N3CC4(COC4)C3)nc2CC2CCCCC2)c(Cl)c1Cl [6/33]	6.6/7.9/8.0	6.6/7.9/8.0	6.6/7.9/8.0	–	–	–
CC(C)(C)NS(=O)(=O)c1ccc(-c2sc(C(=O)NC3COC3)nc2CC2CCCCC2)c(Cl)c1Cl [6/34]	7.2/8.5/8.5	7.2/8.5/8.5	7.2/8.5/8.5	–	–	–

Structure (SMILES)	pIC50 (FRET) [1]	pIC50 (FF) (RORγ)	pIC50 (REN) (RORγ)	IC50 [1] [nM]	IC50 (RORγ; firefly (FF) luciferase, read-out: pIC50 (FF) (converted)) [nM]	IC50 (RORγ; renilla normalised (RENnorm) luciferase, read-out: pIC50 (REN) (converted)) [nM]
CC(C)(C)NS(=O)(=O)c1ccc(-c2sc(C(=O)NC3CCS(=O)(=O)CC3)nc2CC2CC2)c(Cl)c1Cl [6/35]	7.0/7.5/7.5	7.0/7.5/7.5	7.0/7.5/7.5	–	–	–
CC(C)(C)NS(=O)(=O)c1ccc(-c2sc(C(=O)NCC3(C(=O)O)CCOCC3)nc2CC2CCCCC2)c(Cl)c1Cl [6/36]	6.3/7.4/7.4	6.3/7.4/7.4	6.3/7.4/7.4	–	–	–
CC(C)(C)NS(=O)(=O)c1ccc(-c2sc(C(=O)N3CC(C(C)(C)C(=O)O)C3)nc2CC2CCCCC2)c(Cl)c1Cl [6/37]	6.1	6.1/6.9/6.9	6.1/6.9/6.9	–	–	–
CC(C)(C)NS(=O)(=O)c1ccc(-c2sc(C(=O)NC34CC(C(=O)O)(C3)C4)nc2CC2CCCCC2)c(Cl)c1Cl [6/38]	6.8/7.8/7.9	6.8/7.8/7.9	6.8/7.8/7.9	–	–	–
CC(C)(C)NS(=O)(=O)c1ccc(-c2sc(C(=O)NCCC(C)(C)C(=O)O)nc2CC2CCCCC2)c(Cl)c1Cl [6/39]	6.4/8.2/8.2	6.4/8.2/8.2	6.4/8.2/8.2	–	–	–
CSc1cnc(CNC(=O)c2nc(CC3CCCCC3)c(-c3ccc(S(=O)(=O)NC(C)(C)C)c(Cl)c3Cl)s2)s1 [6/40]	7.0/8.2/8.3	7.0/8.2/8.3	7.0/8.2/8.3	–	–	–
CC(C)(C)NS(=O)(=O)c1ccc(-c2sc(C(=O)N[C@H]3C[C@H](S(C)(=O)=O)C3)nc2CC2CCCCC2)c(Cl)c1Cl [6/41]	7.3/8.0/8.2	7.3/8.0/8.2	7.3/8.0/8.2	–	–	–
CC(C)(C)NS(=O)(=O)c1ccc(-c2sc(C(=O)N[C@H]3C[C@@H](S(C)(=O)=O)C3)nc2CC2CCCCC2)c(Cl)c1Cl [6/42]	7.2/8.2/8.4	7.2/8.2/8.4	7.2/8.2/8.4	–	–	–
CC(C)(C)NS(=O)(=O)c1ccc(-c2sc(C(=O)NC3CCS(=O)(=O)CC3)nc2CC2CCCCC2)c(Cl)c1Cl [6/43]	7.0/8.7/8.7	7.0/8.7/8.7	7.0/8.7/8.7	–	–	–
CC(C)(C)NS(=O)(=O)c1ccc(-c2sc(C(=O)N3CC4CC(C3)O4)nc2CC2CCCCC2)c(Cl)c1Cl [6/44]	7.4/7.8/8.0	7.4/7.8/8.0	7.4/7.8/8.0	–	–	–
CC(C)(C)NS(=O)(=O)c1ccc(-c2sc(C(=O)N3CC4(CCS(=O)(=O)CC4)C3)nc2CC2CCCCC2)c(Cl)c1Cl [6/45]	7.1/7.9/8.0	7.1/7.9/8.0	7.1/7.9/8.0	–	–	–
CC(C)(C)NS(=O)(=O)c1ccc(-c2sc(C(=O)NC3CCC(C(=O)O)C3)nc2CC2CCCCC2)c2ccccc12 (stereo not drawn) [6/51]	6.3/8.4/8.4	6.3/8.4/8.4	6.3/8.4/8.4	–	–	–
CN1CCN(C(=O)c2nc(CC3CCCCC3)c(-c3ccc(S(=O)(=O)NC(C)(C)C)c4ccccc34)s2)CC1 [6/53]	6.6/7.1/7.4	6.6/7.1/7.4	6.6/7.1/7.4	–	–	–
CC(C)(C)NS(=O)(=O)c1ccc(-c2sc(C(=O)N[C@H]3C[C@H](C(=O)O)C3)nc2CC2CCCCC2)cc1C(C)(C)C [7/2]	6.2/7.5/7.6	6.2/7.5/7.6	6.2/7.5/7.6	–	–	–
CC(C)(C)c1cc(-c2sc(C(=O)N[C@H]3C[C@H](C(=O)O)C3)nc2CC2CCCCC2)cc(C(F)F)c1 [7/5]	6.3/7.0/7.1	6.3/7.0/7.1	6.3/7.0/7.1	–	–	–
CC1(c2cc(C(=O)NCC(F)(F)F)cc(-c3sc(C(=O)N[C@H]4C[C@H](C(=O)O)C4)nc3CC3CCCCC3)c2)CC1 [7/6]	6.2/7.1/7.2	6.2/7.1/7.2	6.2/7.1/7.2	–	–	–
CC(C)COc1cc(-c2sc(C(=O)N[C@H]3C[C@H](C(=O)O)C3)nc2CC2CCCCC2)cc(C(C)(C)C)n1 [7/11]	5.9/7.4/7.4	5.9/7.4/7.4	5.9/7.4/7.4	–	–	–
CC(C)(C)NS(=O)(=O)c1ccc(-c2sc(C(=O)N[C@H]3C[C@H](C(=O)O)C3)nc2CC2CCCCC2)c(Cl)c1C(F)(F)F [7/12]	6.2/8.0/8.2	6.2/8.0/8.2	6.2/8.0/8.2	–	–	–
Cc1c(S(=O)(=O)NC(C)(C)C)ccc(-c2sc(C(=O)N[C@H]3C[C@H](C(=O)O)C3)nc2CC2CCCCC2)c1C(F)(F)F [7/14]	5.8/8.5/8.7	5.8/8.5/8.7	5.8/8.5/8.7	–	–	–
CC(C)(C)NS(=O)(=O)c1ccc(-c2sc(C(=O)N[C@H]3C[C@H](C(=O)O)C3)nc2CC2CCCCC2)c(F)c1C(F)F [7/15]	6.7/8.7/8.5	6.7/8.7/8.5	6.7/8.7/8.5	–	–	–
CC(C)(C)NS(=O)(=O)c1ccc(-c2sc(C(=O)N[C@H]3C[C@H](C(=O)O)C3)nc2CC2CCCCC2)c(C(F)F)c1Cl [7/16]	6.5/8.5/8.5	6.5/8.5/8.5	6.5/8.5/8.5	–	–	–
